Source: the NIST ThermoML archive (doi:10.1021/je020042y)
Numbers after ± are expanded uncertainties.

Assay: molar heat capacity at saturation pressure
Conditions: 316.65 K; Liquid

| molar heat capacity | Compound |
| --- | --- |
| 130.55 ± 1 J/K/mol | ClCCCl [1,2-dichloroethane] |

Same assay, conditions: 319.16 K; Liquid

| Compound | molar heat capacity |
| --- | --- |
| ClCCCCCl [1,4-dichlorobutane] | 187.89 ± 1.5 J/K/mol |
| ClCCCCCCl [1,5-dichloropentane] | 217.92 ± 1.7 J/K/mol |
| ClCCCCl [1,3-dichloropropane] | 160.47 ± 1.2 J/K/mol |
| ClCCCCCCCl [1,6-dichlorohexane] | 246.57 ± 1.9 J/K/mol |
| ClCCCl [1,2-dichloroethane] | 130.88 ± 1 J/K/mol |

Same assay, conditions: 321.65 K; Liquid

| Compound | molar heat capacity |
| --- | --- |
| ClCCCCCl [1,4-dichlorobutane] | 188.52 ± 1.5 J/K/mol |
| ClCCCCCCl [1,5-dichloropentane] | 218.56 ± 1.7 J/K/mol |
| ClCCCCl [1,3-dichloropropane] | 160.93 ± 1.2 J/K/mol |
| ClCCCCCCCl [1,6-dichlorohexane] | 247.24 ± 1.9 J/K/mol |
| ClCCCl [1,2-dichloroethane] | 131.09 ± 1 J/K/mol |

Same assay, conditions: 323.15 K; Liquid

| molar heat capacity | Compound |
| --- | --- |
| 196.66 ± 1.5 J/K/mol | CCCCO [butan-1-ol] |
| 75.32 ± 0.58 J/K/mol | O [water] |

| Compound | molar heat capacity |
| --- | --- |
| Cc1ccccc1 [toluene] | 164.51 ± 1.3 J/K/mol |

Same assay, conditions: 324.16 K; Liquid

| Compound | molar heat capacity |
| --- | --- |
| ClCCCCCl [1,4-dichlorobutane] | 188.85 ± 1.5 J/K/mol |
| ClCCCCCCl [1,5-dichloropentane] | 219 ± 1.7 J/K/mol |
| ClCCCCl [1,3-dichloropropane] | 161.01 ± 1.2 J/K/mol |
| ClCCCCCCCl [1,6-dichlorohexane] | 247.78 ± 1.9 J/K/mol |
| ClCCCl [1,2-dichloroethane] | 131.2 ± 1 J/K/mol |

Same assay, conditions: 326.65 K; Liquid

| Compound | molar heat capacity |
| --- | --- |
| ClCCCCCl [1,4-dichlorobutane] | 189.48 ± 1.5 J/K/mol |
| ClCCCCCCl [1,5-dichloropentane] | 219.91 ± 1.7 J/K/mol |
| ClCCCCl [1,3-dichloropropane] | 161.59 ± 1.2 J/K/mol |
| ClCCCCCCCl [1,6-dichlorohexane] | 248.95 ± 1.9 J/K/mol |
| ClCCCl [1,2-dichloroethane] | 131.56 ± 1 J/K/mol |

Same assay, conditions: 329.15 K; Liquid

| Compound | molar heat capacity |
| --- | --- |
| ClCCCCCl [1,4-dichlorobutane] | 190.01 ± 1.5 J/K/mol |
| ClCCCCCCl [1,5-dichloropentane] | 220.61 ± 1.7 J/K/mol |
| ClCCCCl [1,3-dichloropropane] | 162.11 ± 1.3 J/K/mol |
| ClCCCCCCCl [1,6-dichlorohexane] | 249.58 ± 1.9 J/K/mol |
| ClCCCl [1,2-dichloroethane] | 131.87 ± 1 J/K/mol |

Same assay, conditions: 331.66 K; Liquid

| Compound | molar heat capacity |
| --- | --- |
| ClCCCCCl [1,4-dichlorobutane] | 190.54 ± 1.5 J/K/mol |
| ClCCCCCCl [1,5-dichloropentane] | 221.16 ± 1.7 J/K/mol |
| ClCCCCl [1,3-dichloropropane] | 162.48 ± 1.3 J/K/mol |
| ClCCCCCCCl [1,6-dichlorohexane] | 250.36 ± 1.9 J/K/mol |
| ClCCCl [1,2-dichloroethane] | 132.06 ± 1 J/K/mol |

Same assay, conditions: 333.15 K; Liquid

| molar heat capacity | Compound |
| --- | --- |
| 205.33 ± 1.6 J/K/mol | CCCCO [butan-1-ol] |
| 75.33 ± 0.58 J/K/mol | O [water] |

| Compound | molar heat capacity |
| --- | --- |
| Cc1ccccc1 [toluene] | 167.63 ± 1.3 J/K/mol |

Same assay, conditions: 334.15 K; Liquid

| Compound | molar heat capacity |
| --- | --- |
| ClCCCCCl [1,4-dichlorobutane] | 190.99 ± 1.5 J/K/mol |
| ClCCCCCCl [1,5-dichloropentane] | 221.76 ± 1.7 J/K/mol |
| ClCCCCl [1,3-dichloropropane] | 162.96 ± 1.3 J/K/mol |
| ClCCCCCCCl [1,6-dichlorohexane] | 251.24 ± 1.9 J/K/mol |
| ClCCCl [1,2-dichloroethane] | 132.24 ± 1 J/K/mol |

Same assay, conditions: 336.66 K; Liquid

| Compound | molar heat capacity |
| --- | --- |
| ClCCCCCl [1,4-dichlorobutane] | 191.48 ± 1.5 J/K/mol |
| ClCCCCCCl [1,5-dichloropentane] | 222.43 ± 1.7 J/K/mol |
| ClCCCCl [1,3-dichloropropane] | 163.33 ± 1.3 J/K/mol |
| ClCCCCCCCl [1,6-dichlorohexane] | 252 ± 1.9 J/K/mol |
| ClCCCl [1,2-dichloroethane] | 132.59 ± 1 J/K/mol |

Same assay, conditions: 339.16 K; Liquid

| Compound | molar heat capacity |
| --- | --- |
| ClCCCCCl [1,4-dichlorobutane] | 192 ± 1.5 J/K/mol |
| ClCCCCCCl [1,5-dichloropentane] | 223.1 ± 1.7 J/K/mol |
| ClCCCCl [1,3-dichloropropane] | 163.82 ± 1.3 J/K/mol |
| ClCCCCCCCl [1,6-dichlorohexane] | 252.72 ± 2 J/K/mol |
| ClCCCl [1,2-dichloroethane] | 132.82 ± 1 J/K/mol |

Same assay, conditions: 341.65 K; Liquid

| Compound | molar heat capacity |
| --- | --- |
| ClCCCCCl [1,4-dichlorobutane] | 192.36 ± 1.5 J/K/mol |
| ClCCCCCCl [1,5-dichloropentane] | 223.58 ± 1.7 J/K/mol |
| ClCCCCl [1,3-dichloropropane] | 164.1 ± 1.3 J/K/mol |
| ClCCCCCCCl [1,6-dichlorohexane] | 253.7 ± 2 J/K/mol |
| ClCCCl [1,2-dichloroethane] | 132.96 ± 1 J/K/mol |

Same assay, conditions: 343.15 K; Liquid

| molar heat capacity | Compound |
| --- | --- |
| 214.22 ± 1.7 J/K/mol | CCCCO [butan-1-ol] |
| 75.38 ± 0.58 J/K/mol | O [water] |

| Compound | molar heat capacity |
| --- | --- |
| Cc1ccccc1 [toluene] | 170.85 ± 1.3 J/K/mol |

Same assay, conditions: 344.16 K; Liquid

| Compound | molar heat capacity |
| --- | --- |
| ClCCCCCl [1,4-dichlorobutane] | 193.05 ± 1.5 J/K/mol |
| ClCCCCCCl [1,5-dichloropentane] | 224.7 ± 1.7 J/K/mol |
| ClCCCCl [1,3-dichloropropane] | 164.44 ± 1.3 J/K/mol |
| ClCCCCCCCl [1,6-dichlorohexane] | 254.49 ± 2 J/K/mol |
| ClCCCl [1,2-dichloroethane] | 133.32 ± 1 J/K/mol |

Same assay, conditions: 346.65 K; Liquid

| Compound | molar heat capacity |
| --- | --- |
| ClCCCCCl [1,4-dichlorobutane] | 193.63 ± 1.5 J/K/mol |
| ClCCCCCCl [1,5-dichloropentane] | 225.01 ± 1.7 J/K/mol |
| ClCCCCl [1,3-dichloropropane] | 165.1 ± 1.3 J/K/mol |
| ClCCCCCCCl [1,6-dichlorohexane] | 255.12 ± 2 J/K/mol |
| ClCCCl [1,2-dichloroethane] | 133.59 ± 1 J/K/mol |

Same assay, conditions: 349.15 K; Liquid

| Compound | molar heat capacity |
| --- | --- |
| ClCCCCCl [1,4-dichlorobutane] | 194 ± 1.5 J/K/mol |
| ClCCCCCCl [1,5-dichloropentane] | 225.75 ± 1.8 J/K/mol |
| ClCCCCl [1,3-dichloropropane] | 165.38 ± 1.3 J/K/mol |
| ClCCCCCCCl [1,6-dichlorohexane] | 255.75 ± 2 J/K/mol |
| ClCCCl [1,2-dichloroethane] | 133.83 ± 1 J/K/mol |

Same assay, conditions: 351.66 K; Liquid

| Compound | molar heat capacity |
| --- | --- |
| ClCCCCCl [1,4-dichlorobutane] | 194.7 ± 1.5 J/K/mol |
| ClCCCCCCl [1,5-dichloropentane] | 226.41 ± 1.8 J/K/mol |
| ClCCCCl [1,3-dichloropropane] | 165.81 ± 1.3 J/K/mol |
| ClCCCCCCCl [1,6-dichlorohexane] | 257 ± 2 J/K/mol |
| ClCCCl [1,2-dichloroethane] | 134.22 ± 1 J/K/mol |

Same assay, conditions: 353.14 K; Liquid

| Compound | molar heat capacity |
| --- | --- |
| ClCCCCCl [1,4-dichlorobutane] | 195.12 ± 1.5 J/K/mol |
| ClCCCCCCl [1,5-dichloropentane] | 227.13 ± 1.8 J/K/mol |
| ClCCCCl [1,3-dichloropropane] | 166.22 ± 1.3 J/K/mol |
| ClCCCCCCCl [1,6-dichlorohexane] | 257.47 ± 2 J/K/mol |
| ClCCCl [1,2-dichloroethane] | 134.46 ± 1 J/K/mol |
